{"source": "ChEMBL document CHEMBL4007392", "about": "“Modulating Mineralocorticoid Receptor with Non-steroidal Antagonists. New Opportunities for the Development of Potent and Selective Ligands without Off-Target Side Effects” (J Med Chem, 2017)", "target": "T1, Mineralocorticoid receptor (Homo sapiens, UniProt P08235)", "T1 sequence (P08235 whole entry)": "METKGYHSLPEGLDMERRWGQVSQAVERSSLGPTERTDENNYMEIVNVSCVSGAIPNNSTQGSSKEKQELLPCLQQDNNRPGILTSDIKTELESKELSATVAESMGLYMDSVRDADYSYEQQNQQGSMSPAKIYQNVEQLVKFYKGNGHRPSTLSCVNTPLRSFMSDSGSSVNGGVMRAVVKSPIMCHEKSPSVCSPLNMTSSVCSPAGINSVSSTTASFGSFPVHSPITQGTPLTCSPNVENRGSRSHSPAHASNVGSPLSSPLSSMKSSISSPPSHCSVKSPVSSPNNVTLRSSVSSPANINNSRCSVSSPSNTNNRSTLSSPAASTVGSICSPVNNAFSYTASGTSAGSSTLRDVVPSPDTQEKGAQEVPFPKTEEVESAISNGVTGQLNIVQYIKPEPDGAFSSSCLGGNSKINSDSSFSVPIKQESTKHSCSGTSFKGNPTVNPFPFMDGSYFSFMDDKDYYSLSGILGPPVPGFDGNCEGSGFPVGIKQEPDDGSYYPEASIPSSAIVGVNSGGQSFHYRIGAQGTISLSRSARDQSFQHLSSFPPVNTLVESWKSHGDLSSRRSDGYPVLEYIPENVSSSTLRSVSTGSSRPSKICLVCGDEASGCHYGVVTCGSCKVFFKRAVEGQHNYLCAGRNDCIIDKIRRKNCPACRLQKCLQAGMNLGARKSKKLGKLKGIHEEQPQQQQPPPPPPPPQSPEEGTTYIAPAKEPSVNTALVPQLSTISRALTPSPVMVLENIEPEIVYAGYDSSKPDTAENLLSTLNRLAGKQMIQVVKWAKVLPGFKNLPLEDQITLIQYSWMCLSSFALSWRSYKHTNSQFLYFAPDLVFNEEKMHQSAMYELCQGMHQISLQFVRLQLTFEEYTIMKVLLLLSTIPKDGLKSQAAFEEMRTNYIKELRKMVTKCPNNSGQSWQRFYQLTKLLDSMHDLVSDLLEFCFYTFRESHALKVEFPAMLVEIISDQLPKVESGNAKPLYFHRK", "assay": "Antagonist activity at Gal4-fused human MR LBD expressed in HEK293T cells assessed as inhibition of aldosterone-induced transactivation activity after 16 hrs by luciferase reporter gene assay", "format": "cell-based, HEK-293T", "data": [{"smiles": "CCOc1ncc(C)c2c1[C@H](c1ccc(C#N)cc1OC)C(C(N)=O)=C(C)N2", "note": "[FINERENONE]", "values": [{"measurement": "IC50", "result": 58, "unit": "nM"}]}]}
